The text below walks through data of US8541603B2, “Substituted cyclopentanes or cyclopentanones as therapeutic agents” (Allergan, Inc., priority 2008, dated 2013).

In this assay the test system is lashes and adjacent hairs of the eyelids. Put plainly: Observation of lashes of glaucoma patients treated with bimatoprost in only one eye. The format is in vivo. The following applies: glaucoma patient treated in one eye only. An excerpt:
In the course of treating patients having glaucoma, treatment may only be appropriate in one eye. […] The lash appearance on the lids of the treated eyes would have appeared quite attractive if it represented a bilateral phenomenon. As a result of its asymmetric nature, the long lashes on one side could be construed as disturbing from a cosmetic standpoint. A systemic examination was preformed as a result of the asymmetric phenomenon. It soon became apparent that this altered appearance was not an isolated finding. […] Definite differences could be identified to varying degrees in the lashes and adjacent hairs of all patients who were taking the drug on a unilateral basis for longer than 6 months.
The changes in the lashes were apparent on gross inspection in several patients once attention was focused on the issue. In those with light colored hair and lashes, the differences were only seen easily with the aid of the high magnification and lighting capabilities of the slit lamp biomicroscope. In the course of glaucoma follow-up examination, attention is generally immediately focused on the eye itself. As a result of the high power magnification needed only one eye is seen at a time and the eye is seen at a high enough power that the lashes are not in focus. […]

With `CCNC(=O)CCC/C=C\C[C@@H]1[C@@H](/C=C/[C@@H](O)CCc2ccccc2)[C@H](O)C[C@@H]1O` [bimatoprost], the “lashes in the treated eye versus the non-treated eye” value was “longer, thicker, and fuller”.
